Results: publication PMC7930822, “Phase I Trial to Evaluate the Tolerance, Pharmacokinetics and Efficacy of the Broad-Spectrum ErbB Family Inhibitor Larotinib Mesylate in Patients With Advanced Solid Tumors” (Frontiers in Pharmacology, 2021)
Where a name gives a salt, the structure may show the parent alone. Read-outs that look alike come from different tables or passages of the source.

Assay: phase I plasma pharmacokinetics (non-compartmental, LC-MS/MS)
Assay type: in vivo, human
Details: for AUC(0-t) / AUC(0-inf) / Cmax / half-life / Tmax / Vd/F: human, plasma, po
Protocol: This was a phase I, single-center, open-label, dose-escalation study conducted at First Hospital of Jilin University, China (registration no.: ChiCTR-OPC-15007153 registered at http://www.chictr.org.cn). Larotinib mesylate hard capsules were produced and supplied by Sunshine Lake Pharma Co., Ltd (Guangdong Province, China) in different unit doses of […] under GMP condition. Seven dose levels were designed in the study: 50, 100, 150, 220, 300, 350, and 400 mg with administration stages labeled cycle 0, cycle 1, and subsequent treatment cycles. Patients received an oral single dose of larotinib mesylate after fasting during a 6-days cycle 0 to evaluate the tolerance and pharmacokinetic characteristics. After cycle 0, larotinib mesylate was continuously administered once daily for 28 days in cycle 1, and the tolerance and pharmacokinetic characteristics of multiple doses were evaluated (Figure 2). The patients who […] disease control (complete response [CR], partial response [PR], or stable disease [SD]) at the end of cycle one were permitted to participate in the subsequent 28-days treatment cycles until progressive disease (PD) or intolerance was observed.
Blood samples (4 ml) for pharmacokinetic analyses were collected in tubes containing K2EDTA anticoagulant. Blood samples were centrifuged at 3,000 rpm for 10 min at 4°C and stored at –80°C until liquid chromatography-mass spectrophotometry (LC-MS/MS) analysis. Urine and fecal samples were collected only when patients were given the150-mg and 220-mg dose levels at sampling time intervals of 0–4, 4–8, 8–12, 12–24, 24–48, 48–72, 72–96 and 96–120 h in cycle 0.
Linear mixed effects model was used to explore the dose exposure relationships. Dose proportionality was concluded if the 95% confidence interval (CI) of the linear regression slope was completely contained within the decision interval (1 + ln (0.8)/ln (8)∼1 + ln (1.25)/ln (8)). For urine and fecal data, the accumulative excretion rates of larotinib and M5 were calculated.
Bioanalysis was performed at Frontage Company (Shanghai, China). Validated high-performance LC-MS/MS method was used to quantify the concentrations of larotinib and M5 in plasma, urine and feces samples. Protein precipitation was employed for plasma, urine and feces processing. Plasma larotinib and M5 concentrations were determined using appropriate calibration curves obtained from standards in the range of 0.5–1,000 ng/ml. The interassay precision of the analysis method were 4.2–5.4% for larotinib and 3.9–4.3% for M5. The interassay accuracy of the analysis method were 100.4–103.4% for larotinib and 102.2–102.9% for M5, respectively.
Statistical analyses were performed using SAS software, version 9.2 (SAS Institute Inc., United States). Descriptive statistics were used to summarize continuous variables as cases, means with standard deviations (SDs), medians, quartiles, maximums and minimums. For categorical variables, frequencies and percentages were used. A linear mixed effects model, relating log-transformed Cmax and AUC parameters to log-transformed dose, was used to investigate dose proportionality.

## COc1cc2ncnc(Nc3ccc(F)c(Cl)c3)c2cc1OCCCN1C[C@@H]2OCCO[C@@H]2C1 [larotinib mesylate]
50–400 mg
  linearity of pharmacokinetics: No clear linear pharmacokinetic characteristic
Continuous once daily administration
  time to steady state: 8 days
50 mg, multiple oral administration, 50 mg larotinib mesylate, steady state, read-out: AUC0-t,ss, mean (min–max)
  AUC(0-t): 3570 ng·h/mL
50 mg, multiple oral administration, 50 mg larotinib mesylate, steady state, read-out: AUC0-∞,ss, mean (min–max)
  AUC(0-inf): 4920 ng·h/mL
50 mg, multiple oral administration, 50 mg larotinib mesylate, steady state, read-out: Cmax,ss, mean (min–max)
  Cmax: 67.5 ng/mL
50 mg, multiple oral administration, 50 mg larotinib mesylate, steady state, read-out: T1/2,ss, mean (min–max) (converted)
  half-life: 61.2 h
50 mg, multiple oral administration, 50 mg larotinib mesylate, steady state, read-out: Tmax,ss, median (min–max)
  Tmax: 5 h
50 mg, multiple oral administration, 50 mg larotinib mesylate, steady state, read-out: Vz/F,ss, mean (min–max)
  Vd/F: 921 L
50 mg, single oral administration, 50 mg larotinib mesylate, read-out: AUC0-24, mean (min–max)
  AUC(0-t): 245 ng·h/mL
50 mg, single oral administration, 50 mg larotinib mesylate, read-out: AUC0-t, mean (min–max)
  AUC(0-t): 635 ng·h/mL
50 mg, single oral administration, 50 mg larotinib mesylate, read-out: AUC0-∞, mean (min–max)
  AUC(0-inf): 817 ng·h/mL
50 mg, single oral administration, 50 mg larotinib mesylate, read-out: Cmax, mean (min–max)
  Cmax: 17.4 ng/mL
50 mg, single oral administration, 50 mg larotinib mesylate, read-out: T1/2, mean (min–max) (converted)
  half-life: 56.7 h
50 mg, single oral administration, 50 mg larotinib mesylate, read-out: Tmax, median (min–max)
  Tmax: 6 h
50 mg, single oral administration, 50 mg larotinib mesylate, read-out: Vz/F, mean (min–max)
  Vd/F: 5070 L
100 mg, multiple oral administration, 100 mg larotinib mesylate, steady state, read-out: AUC0-t,ss, mean (min–max)
  AUC(0-t): 4480 ng·h/mL
100 mg, multiple oral administration, 100 mg larotinib mesylate, steady state, read-out: AUC0-∞,ss, mean (min–max)
  AUC(0-inf): 5200 ng·h/mL
100 mg, multiple oral administration, 100 mg larotinib mesylate, steady state, read-out: Cmax,ss, mean (min–max)
  Cmax: 131 ng/mL
100 mg, multiple oral administration, 100 mg larotinib mesylate, steady state, read-out: T1/2,ss, mean (min–max) (converted)
  half-life: 44.8 h
100 mg, multiple oral administration, 100 mg larotinib mesylate, steady state, read-out: Tmax,ss, median (min–max)
  Tmax: 5 h
100 mg, multiple oral administration, 100 mg larotinib mesylate, steady state, read-out: Vz/F,ss, mean (min–max)
  Vd/F: 1400 L
100 mg, single oral administration, 100 mg larotinib mesylate, read-out: AUC0-24, mean (min–max)
  AUC(0-t): 653 ng·h/mL
100 mg, single oral administration, 100 mg larotinib mesylate, read-out: AUC0-t, mean (min–max)
  AUC(0-t): 1240 ng·h/mL
100 mg, single oral administration, 100 mg larotinib mesylate, read-out: AUC0-∞, mean (min–max)
  AUC(0-inf): 1390 ng·h/mL
100 mg, single oral administration, 100 mg larotinib mesylate, read-out: Cmax, mean (min–max)
  Cmax: 64.1 ng/mL
100 mg, single oral administration, 100 mg larotinib mesylate, read-out: T1/2, mean (min–max) (converted)
  half-life: 43.9 h
100 mg, single oral administration, 100 mg larotinib mesylate, read-out: Tmax, median (min–max)
  Tmax: 5 h
100 mg, single oral administration, 100 mg larotinib mesylate, read-out: Vz/F, mean (min–max)
  Vd/F: 4580 L
150 mg, multiple oral administration, 150 mg larotinib mesylate, steady state, read-out: AUC0-t,ss, mean (min–max)
  AUC(0-t): 18200 ng·h/mL
150 mg, multiple oral administration, 150 mg larotinib mesylate, steady state, read-out: AUC0-∞,ss, mean (min–max)
  AUC(0-inf): 24600 ng·h/mL
150 mg, multiple oral administration, 150 mg larotinib mesylate, steady state, read-out: Cmax,ss, mean (min–max)
  Cmax: 371 ng/mL
150 mg, multiple oral administration, 150 mg larotinib mesylate, steady state, read-out: T1/2,ss, mean (min–max) (converted)
  half-life: 61.2 h
150 mg, multiple oral administration, 150 mg larotinib mesylate, steady state, read-out: Tmax,ss, median (min–max)
  Tmax: 5 h
150 mg, multiple oral administration, 150 mg larotinib mesylate, steady state, read-out: Vz/F,ss, mean (min–max)
  Vd/F: 564 L
150 mg, single oral administration, 150 mg larotinib mesylate, read-out: AUC0-24, mean (min–max)
  AUC(0-t): 1990 ng·h/mL
150 mg, single oral administration, 150 mg larotinib mesylate, read-out: AUC0-t, mean (min–max)
  AUC(0-t): 4780 ng·h/mL
150 mg, single oral administration, 150 mg larotinib mesylate, read-out: AUC0-∞, mean (min–max)
  AUC(0-inf): 5660 ng·h/mL
150 mg, single oral administration, 150 mg larotinib mesylate, read-out: Cmax, mean (min–max)
  Cmax: 150 ng/mL
150 mg, single oral administration, 150 mg larotinib mesylate, read-out: T1/2, mean (min–max) (converted)
  half-life: 39.3 h
150 mg, single oral administration, 150 mg larotinib mesylate, read-out: Tmax, median (min–max)
  Tmax: 5 h
150 mg, single oral administration, 150 mg larotinib mesylate, read-out: Vz/F, mean (min–max)
  Vd/F: 1650 L
220 mg, multiple oral administration, 220 mg larotinib mesylate, steady state, read-out: AUC0-t,ss, mean (min–max)
  AUC(0-t): 30200 ng·h/mL
220 mg, multiple oral administration, 220 mg larotinib mesylate, steady state, read-out: AUC0-∞,ss, mean (min–max)
  AUC(0-inf): 43600 ng·h/mL
220 mg, multiple oral administration, 220 mg larotinib mesylate, steady state, read-out: Cmax,ss, mean (min–max)
  Cmax: 553 ng/mL
220 mg, multiple oral administration, 220 mg larotinib mesylate, steady state, read-out: T1/2,ss, mean (min–max) (converted)
  half-life: 75.7 h
220 mg, multiple oral administration, 220 mg larotinib mesylate, steady state, read-out: Tmax,ss, median (min–max)
  Tmax: 6 h
220 mg, multiple oral administration, 220 mg larotinib mesylate, steady state, read-out: Vz/F,ss, mean (min–max)
  Vd/F: 553 L
220 mg, single oral administration, 220 mg larotinib mesylate, read-out: AUC0-24, mean (min–max)
  AUC(0-t): 3100 ng·h/mL
220 mg, single oral administration, 220 mg larotinib mesylate, read-out: AUC0-t, mean (min–max)
  AUC(0-t): 6360 ng·h/mL
220 mg, single oral administration, 220 mg larotinib mesylate, read-out: AUC0-∞, mean (min–max)
  AUC(0-inf): 8090 ng·h/mL
220 mg, single oral administration, 220 mg larotinib mesylate, read-out: Cmax, mean (min–max)
  Cmax: 278 ng/mL
220 mg, single oral administration, 220 mg larotinib mesylate, read-out: T1/2, mean (min–max) (converted)
  half-life: 68.2 h
220 mg, single oral administration, 220 mg larotinib mesylate, read-out: Tmax, median (min–max)
  Tmax: 5 h
220 mg, single oral administration, 220 mg larotinib mesylate, read-out: Vz/F, mean (min–max)
  Vd/F: 2720 L
300 mg, multiple oral administration, 300 mg larotinib mesylate, steady state, read-out: AUC0-t,ss, mean (min–max)
  AUC(0-t): 17900 ng·h/mL
300 mg, multiple oral administration, 300 mg larotinib mesylate, steady state, read-out: AUC0-∞,ss, mean (min–max)
  AUC(0-inf): 22600 ng·h/mL
300 mg, multiple oral administration, 300 mg larotinib mesylate, steady state, read-out: Cmax,ss, mean (min–max)
  Cmax: 438 ng/mL
300 mg, multiple oral administration, 300 mg larotinib mesylate, steady state, read-out: T1/2,ss, mean (min–max) (converted)
  half-life: 54.3 h
